From patent publication US20250163104A1, “MACROCYCLIC IMMUNOMODULATORS” (priority 2021, published 2025)
pIC50: −log10 of the molar value. Where a SMILES comes first, the peptide text is derived from it. Bridges are numbered along the chain shown (N, C = ends). [ ]: non-standard residue; d: D form. The star is where a group is joined. ξ: configuration not given here. Phe(4-CONH2) = NC(=O)c1ccc(C[C@H](N)C(=O)O)cc1; Phe(4-COOH) = N[C@@H](Cc1ccc(C(=O)O)cc1)C(=O)O; Phg(4-Ph) = N[C@H](C(=O)O)c1ccc(-c2ccccc2)cc1; Bip = N[C@@H](Cc1ccc(-c2ccccc2)cc1)C(=O)O; Phe(3-Me) = Cc1cccc(C[C@H](N)C(=O)O)c1; Phe(4-F) = N[C@@H](Cc1ccc(F)cc1)C(=O)O; Val(3-OH) = CC(C)(O)[C@H](N)C(=O)O; 4Pal = N[C@@H](Cc1ccncc1)C(=O)O; Cha = N[C@@H](CC1CCCCC1)C(=O)O; Cit = NC(=O)NCCC[C@H](N)C(=O)O; Ile(3ξ) = CCC(C)[C@H](N)C(=O)O; Thr(3ξ) = CC(O)[C@H](N)C(=O)O; Ahp(2) = CCCCC[C@H](N)C(=O)O; Carboxymethyl = O=C(O)C*; Orn = NCCC[C@H](N)C(=O)O; Dab = NCC[C@H](N)C(=O)O; Dap = NC[C@H](N)C(=O)O; Propargyl = C#CC*

target: T1, human PD-1 / PD-L1-Ig binding on Jurkat cell line over-expressing human PD-1 (Jurkat-PD-1) (Homo sapiens, UniProt Q15116); assay: Jurkat-PD-1 Cell Binding High-Content Screening Assay (CBA); type: cell-based; conditions: Jurkat-PD-1 cells, PE-labeled PD-L1-Ig 20 nM final; read-out: Jurkat HPD1_PDL1 IC50
T1 construct: expressed in transfected cells; host or cells: Jurkat
Outline: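 Compounds were preincubated with Jurkat-hPD-1 cells in DMEM plus 10% fetal calf serum for 2 h at 37° C. Phycoerythrin-labeled PD-L1-Ig (20 nM final) was then added for 1 hour. Cells were fixed in 4% paraformaldehyde with Hoechst 33342, and bound fluorescence was quantified by high-content imaging.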

T1 sequence (Q15116 25-288): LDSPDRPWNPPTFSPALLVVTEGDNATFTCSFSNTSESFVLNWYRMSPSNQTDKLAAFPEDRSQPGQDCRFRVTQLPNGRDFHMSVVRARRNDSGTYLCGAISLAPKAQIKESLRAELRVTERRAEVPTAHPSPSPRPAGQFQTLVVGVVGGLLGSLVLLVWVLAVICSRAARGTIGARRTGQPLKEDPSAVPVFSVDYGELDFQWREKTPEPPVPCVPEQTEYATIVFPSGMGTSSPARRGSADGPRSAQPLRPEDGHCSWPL

pIC50	Compound
6.60	CCCCC[C@@H]1NC(=O)[C@H](C(C)C)NC(=O)[C@@H](Cc2ccccc2)NC(=O)[C@H](CC(=O)O)NC(=O)[C@H](CCCNC(=N)N)NC(=O)[C@H](c2ccc(-c3ccccc3)cc2)NC(=O)[C@H](C(C)C)NC(=O)[C@H](Cc2c[nH]c3ccccc23)NC(=O)[C@H](CC(=O)O)NC(=O)[C@H](Cc2ccc(O)cc2)NC(=O)[C@H](Cc2ccccc2)NC(=O)CSC[C@@H](C(=O)NCC(N)=O)NC(=O)[C@H](CO)NC(=O)[C@H](C(C)C)NC1=O [Compound 1000] ({CH2CO}-FYDWV[Phg(4-Ph)]RD[dF]V[Ahp(2)]VSCG-NH2; thioether N-14)
8.09	CCC[C@@H]1NC(=O)[C@H](Cc2c[nH]c3ccccc23)NC(=O)[C@H](CC(=O)O)NC(=O)[C@H](Cc2ccc(OCC(=O)O)cc2)NC(=O)[C@H](CN)NC(=O)CSC[C@@H](C(=O)N[C@@H](C)C(N)=O)NC(=O)[C@H]([C@@H](C)O)NC(=O)[C@H](C(C)C)NC(=O)[C@H](CC2CCCCC2)NC(=O)[C@H](CCN)NC(=O)[C@@H](CC(C)C)NC(=O)[C@H](CCCN)NC(=O)[C@H](CCCNC(N)=O)NC(=O)[C@H](Cc2ccc(-c3ccccc3)cc2)NC1=O [Compound 1355]
7.59	Cc1cccc(C[C@@H]2NC(=O)[C@H](CC(=O)O)NC(=O)[C@H](Cc3ccc(OCC(=O)O)cc3)NC(=O)[C@H](C(C)O)NC(=O)CSC[C@@H](C(=O)N[C@H](CC(N)=O)C(N)=O)NC(=O)[C@H](CO)NC(=O)[C@H](C(C)(C)O)NC(=O)[C@H](CC3CCCCC3)NC(=O)[C@H](CCN)NC(=O)[C@@H](CC(C)C)NC(=O)[C@H](CCCN)NC(=O)[C@H](Cc3ccc(O)cc3)NC(=O)[C@H](Cc3ccc(-c4ccccc4)cc3)NC(=O)[C@H](Cc3ccc(C(N)=O)cc3)NC2=O)c1 (stereo partly drawn) [Compound 2658] ({CH2CO}-[Thr(3ξ)]Y(Carboxymethyl)D[Phe(3-Me)][Phe(4-CONH2)][Bip]Y[Orn][dL][Dab][Cha][Val(3-OH)]SC[dN]-NH2; thioether N-14)
8.57	Cc1cccc(C[C@@H]2NC(=O)[C@H](CC(=O)O)NC(=O)[C@H](Cc3ccc(C(=O)O)cc3)NC(=O)[C@H](Cc3ccncc3)NC(=O)CSC[C@@H](C(=O)N[C@@H](CCN)C(N)=O)NC(=O)[C@H](CO)NC(=O)[C@H](C(C)(C)O)NC(=O)[C@H](CC3CCCCC3)NC(=O)[C@H](CCN)NC(=O)[C@@H](CC(C)C)NC(=O)[C@H](CCCN)NC(=O)[C@H](Cc3ccc(OCC(=O)O)cc3)NC(=O)[C@H](Cc3ccc(-c4ccccc4)cc3)NC(=O)[C@H](Cc3ccc(OCC(=O)O)cc3)NC2=O)c1 [Compound 2622] ({CH2CO}-[4Pal][Phe(4-COOH)]D[Phe(3-Me)]Y(Carboxymethyl)[Bip]Y(Carboxymethyl)[Orn][dL][Dab][Cha][Val(3-OH)]SC[Dab]-NH2; thioether N-14)
7.60	CCCC[C@H]1NC(=O)[C@H](CCCN)NC(=O)[C@H](CCCNC(N)=O)NC(=O)[C@H](Cc2ccc(-c3ccccc3)cc2)NC(=O)[C@H](C(C)C)NC(=O)[C@H](Cc2c[nH]c3ccccc23)NC(=O)[C@H](CC(=O)O)NC(=O)[C@H](Cc2ccncc2)NC(=O)[C@H](CN)NC(=O)CSC[C@@H](C(=O)N[C@@H](C)C(N)=O)NC(=O)[C@H]([C@@H](C)O)NC(=O)[C@H](C(C)C)NC(=O)[C@H](CC2CCCCC2)NC(=O)[C@H](CCN)NC1=O [Compound 1703]
7.42	CCC(C)[C@@H]1NC(=O)[C@H](Cc2ccc(-c3ccccc3)cc2)NC(=O)[C@H](C(C)C)NC(=O)[C@H](Cc2cccc(C)c2)NC(=O)[C@H](CC(=O)O)NC(=O)[C@H](Cc2ccc(C(=O)O)cc2)NC(=O)[C@H](Cc2ccncc2)NC(=O)CSC[C@@H](C(N)=O)NC(=O)[C@H](CC(=O)O)NC(=O)[C@H](C(C)C)NC(=O)[C@H](CC2CCCCC2)NC(=O)[C@H](CCN)NC(=O)[C@@H](CC(C)C)NC(=O)[C@H](CCCN)NC1=O (stereo partly drawn) [Compound 2278] ({CH2CO}-[4Pal][Phe(4-COOH)]D[Phe(3-Me)]V[Bip][Ile(3ξ)][Orn][dL][Dab][Cha]VDC-NH2; thioether N-14)
7.88	C#CCOc1ccc(C[C@@H]2NC(=O)[C@H](Cc3ccc(-c4ccccc4)cc3)NC(=O)[C@H](Cc3ccc(C(=O)O)cc3)NC(=O)[C@H](Cc3cccc(C)c3)NC(=O)[C@H](CC(=O)O)NC(=O)[C@H](Cc3ccc(C(=O)O)cc3)NC(=O)[C@H](Cc3ccc(OCC(=O)O)cc3)NC(=O)CSC[C@@H](C(=O)N[C@@H](CCN)C(N)=O)NC(=O)[C@H](CCC(=O)O)NC(=O)[C@H](C(C)C)NC(=O)[C@H](CC3CCCCC3)NC(=O)[C@H](CCN)NC(=O)[C@@H](CC(C)C)NC(=O)[C@H](CCCN)NC2=O)cc1 [Compound 1844] ({CH2CO}-Y(Carboxymethyl)[Phe(4-COOH)]D[Phe(3-Me)][Phe(4-COOH)][Bip]Y(Propargyl)[Orn][dL][Dab][Cha]VEC[Dab]-NH2; thioether N-14)
7.78	CC(C)C[C@H]1NC(=O)[C@H](CCCN)NC(=O)[C@H](C(C)C)NC(=O)[C@H](Cc2ccc(-c3ccccc3)cc2)NC(=O)[C@H](C(C)C)NC(=O)[C@H](Cc2cccc(Cl)c2)NC(=O)[C@H](CC(=O)O)NC(=O)[C@H](Cc2ccc(OCC(=O)O)cc2)NC(=O)[C@H](Cc2ccncc2)NC(=O)CSC[C@@H](C(=O)N[C@@H](C)C(N)=O)NC(=O)[C@H]([C@@H](C)O)NC(=O)[C@H](C(C)C)NC(=O)[C@H](CC2CCCCC2)NC(=O)[C@H](CCN)NC1=O [Compound 1575]
7.15	CC(C)C[C@@H]1NC(=O)[C@H](Cc2c[nH]c3ccccc23)NC(=O)[C@H](CC(=O)O)NC(=O)[C@H](Cc2ccc(O)cc2)NC(=O)[C@H](Cc2ccccc2)NC(=O)CSC[C@@H](C(=O)NCC(N)=O)NC(=O)[C@H](CO)NC(=O)[C@H](C(C)C)NC(=O)[C@H](CC(C)C)NC(=O)[C@H](CC(N)=O)NC(=O)[C@@H](C)NC(=O)[C@H](CCN)NC(=O)[C@H](C(C)C)NC(=O)[C@H](Cc2ccc(-c3ccccc3)cc2)NC1=O [Compound 1102] ({CH2CO}-FYDWL[Bip]V[Dab][dA]NLVSCG-NH2; thioether N-14)
7.66	CC(C)C[C@H]1NC(=O)[C@H](CCCN)NC(=O)[C@H](CCCNC(N)=O)NC(=O)[C@H](Cc2ccc(-c3ccccc3)cc2)NC(=O)[C@H](C(C)C)NC(=O)[C@H](Cc2c[nH]c3ccccc23)NC(=O)[C@H](CC(=O)O)NC(=O)[C@H](Cc2ccc(OCC(=O)O)cc2)NC(=O)[C@H](CN)NC(=O)CSC[C@@H](C(=O)N[C@@H](C)C(N)=O)NC(=O)[C@H]([C@@H](C)O)NC(=O)[C@H](C(C)C)NC(=O)[C@H](Cc2ccc(F)cc2)NC(=O)[C@H](CCN)NC1=O [Compound 1367] ({CH2CO}-[Dap]Y(Carboxymethyl)DWV[Bip][Cit][Orn][dL][Dab][Phe(4-F)]VTCA-NH2; thioether N-14)
7.73	CCCC[C@H]1NC(=O)[C@H](CCCN)NC(=O)[C@H]([C@@H](C)CC)NC(=O)[C@H](Cc2ccc(-c3ccccc3)cc2)NC(=O)[C@H](C(C)C)NC(=O)[C@H](Cc2c[nH]c3ccccc23)NC(=O)[C@H](CC(=O)O)NC(=O)[C@H](Cc2ccc(C(=O)O)cc2)NC(=O)[C@H](Cc2ccc(OCC(=O)O)cc2)NC(=O)CSC[C@@H](C(=O)N[C@@H](C)C(N)=O)NC(=O)[C@H]([C@@H](C)O)NC(=O)[C@H](C(C)C)NC(=O)[C@H](CC2CCCCC2)NC(=O)[C@H](CCN)NC1=O [Compound 1707]
